SMILES strings stand for the structures.

The target of this test is T1, human CB2R (Homo sapiens, UniProt P34972).
T1 construct: host or cells: CHO cells
T1 sequence (P34972 whole entry): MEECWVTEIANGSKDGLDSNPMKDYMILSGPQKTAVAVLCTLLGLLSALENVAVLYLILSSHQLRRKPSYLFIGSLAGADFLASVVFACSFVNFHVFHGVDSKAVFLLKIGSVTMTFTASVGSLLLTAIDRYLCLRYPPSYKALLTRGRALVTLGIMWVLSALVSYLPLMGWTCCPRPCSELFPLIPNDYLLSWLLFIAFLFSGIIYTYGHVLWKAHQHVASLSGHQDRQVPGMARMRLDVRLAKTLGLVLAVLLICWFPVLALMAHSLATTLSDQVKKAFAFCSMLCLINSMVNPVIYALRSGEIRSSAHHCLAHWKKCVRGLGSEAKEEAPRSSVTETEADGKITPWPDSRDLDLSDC
The experiment in a line: CB2R mediated modulation of cAMP synthesis. The class given is cell-based. As to conditions: found through the use of the above described assays (binding and cAMP); CHO cells expressing human CB2R, forskolin-stimulated cAMP. A digest of the protocol:
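CHO cells expressing human CB2R were treated for 30 min at 37 °C with compound in buffer containing 1 mM IBMX, 0.25% BSA and 10 uM forskolin. cAMP was measured after lysis. EC50 is the concentration giving 50% inhibition of forskolin-stimulated cAMP, scaled to the level set by 1 uM CP55940, fitted by four-parameter logistic.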
For the molecule `CC(C)(C(=O)Nc1cccc2ccccc12)S(=O)(=O)c1ccc(Cl)cc1` [2-(4-Chloro-benzenesulfonyl)-2-methyl-N-naphthalen-1-yl-propionamide], the agonistic activity entry is “agonistic activity”.

For `CC(C)(C)c1csc(NC(=O)C(C)(C)S(=O)(=O)c2ccc3ccccc3c2)n1` [N-(4-tert-Butyl-thiazol-2-yl)-2-methyl-2-(naphthalene-2-sulfonyl)-propionamide], the agonistic activity entry is recorded as “agonistic activity”.

With `Cc1cc(NC(=O)C(C)(C)S(=O)(=O)c2ccc(Cl)cc2)n(C)n1` [2-(4-Chloro-benzenesulfonyl)-N-(2,5-dimethyl-2H-pyrazol-3-yl)-2-methyl-propionamide], the agonistic activity entry is listed as “agonistic activity”.

Take `O=C(Nc1cc(C(F)(F)F)ccn1)C1(S(=O)(=O)c2ccc(Cl)cc2)CC1` [1-(4-Chloro-benzenesulfonyl)-cyclopropanecarboxylic acid (4-trifluoromethyl-pyridin-2-yl)-amide]: the agonistic activity entry is “agonistic activity”.

For `COc1ccc(S(=O)(=O)C(C)(C)C(=O)Nc2nc(C3CCCCC3)cs2)cc1` [N-(4-cyclohexyl-1,3-thiazol-2-yl)-2-[(4-methoxyphenyl)sulfonyl]-2-methylpropanamide], the agonistic activity entry is “agonistic activity”.

`COc1ccc(S(=O)(=O)C(C)(C)C(=O)Nc2c(C)c(-c3ccccc3)nn2C)cc1` [N-(1,4-dimethyl-3-phenyl-1H-pyrazol-5-yl)-2-[(4-methoxyphenyl)sulfonyl]-2-methylpropanamide]: the agonistic activity entry is reported as “agonistic activity”.

Consider `Cc1ccc(S(=O)(=O)C(C)(C)C(=O)Nc2cc(C(C)(C)C)no2)cc1F` [N-(3-tert-Butyl-isoxazol-5-yl)-2-(3-fluoro-4-methyl-benzenesulfonyl)-2-methyl-propionamide], for which the agonistic activity entry is “agonistic activity”.

With `CC(C)(C(=O)Nc1nc(-c2cccnc2)cs1)S(=O)(=O)c1ccc(F)cc1F` [2-(2,4-Difluoro-benzenesulfonyl)-2-methyl-N-(4-pyridin-3-yl-thiazol-2-yl)-propionamide], the agonistic activity result is recorded as “agonistic activity”.

Take `CC(C)(C(=O)Nc1nc(-c2ccccc2)no1)S(=O)(=O)c1ccc(Cl)cc1` [2-(4-Chloro-benzenesulfonyl)-2-methyl-N-(3-phenyl-[1,2,4]oxadiazol-5-yl)-propionamide]: the agonistic activity result was “agonistic activity”.

As to `CC(C)(C(=O)Nc1nc(C2CCCCC2)cs1)S(=O)(=O)c1ccc(S(C)(=O)=O)cc1` [N-(4-cyclohexyl-1,3-thiazol-2-yl)-2-methyl-2-{[4-(methylsulfonyl)phenyl]sulfonyl}propanamide], the agonistic activity result is “agonistic activity”.

With `CC(C)(C(=O)Nc1cccc2ccccc12)S(=O)(=O)c1ccc(F)cc1F` [2-(2,4-Difluoro-benzenesulfonyl)-2-methyl-N-naphthalen-1-yl-propionamide], the agonistic activity entry is reported as “agonistic activity”.

On to `CC(C)(C)c1cc(NC(=O)C2(S(=O)(=O)c3ccc(Cl)cc3)CC2)[nH]n1` [1-(4-Chloro-benzenesulfonyl)-cyclopropanecarboxylic acid (5-tert-butyl-2H-pyrazol-3-yl)-amide], for which the agonistic activity result is listed as “agonistic activity”.

Regarding `CC(C)(C(=O)Nc1nc(-c2ccc(F)cc2)cs1)S(=O)(=O)c1ccc(Cl)cc1` [2-[(4-chlorophenyl)sulfonyl]-N-[4-(4-fluorophenyl)-1,3-thiazol-2-yl]-2-methylpropanamide], the agonistic activity entry is listed as “agonistic activity”.

As to `CC(C)(C(=O)Nc1nc(CN2CCCCC2)cs1)S(=O)(=O)c1ccc(Cl)cc1` [2-(4-Chloro-benzenesulfonyl)-2-methyl-N-(4-piperidin-1-ylmethyl-thiazol-2-yl)-propionamide], the agonistic activity result is on record as “agonistic activity”.

Take `CC(C)(C(=O)Nc1ccccc1Cl)S(=O)(=O)c1ccc(Cl)cc1` [2-(4-Chloro-benzenesulfonyl)-N-(2-chloro-phenyl)-2-methyl-propionamide]: the agonistic activity result is recorded as “agonistic activity”.

Consider `Cn1nc(-c2ccccc2)cc1NC(=O)C(C)(C)S(=O)(=O)c1ccc(C(F)(F)F)nc1` [2-Methyl-N-(2-methyl-5-phenyl-2H-pyrazol-3-yl)-2-(6-trifluoromethyl-pyridine-3-sulfonyl)-propionamide], for which the agonistic activity entry was “agonistic activity”.

Regarding `CC(C)(C)Cc1cc(NC(=O)C(C)(C)S(=O)(=O)c2ccc(Cl)cc2F)on1` [2-[(4-chloro-2-fluorophenyl)sulfonyl]-N-[3-(2,2-dimethylpropyl)isoxazol-5-yl]-2-methylpropanamide], the agonistic activity entry was “agonistic activity”.

In the case of `CC(C)(C)c1nnc(NC(=O)C(C)(C)S(=O)(=O)c2ccc(C(F)(F)F)nc2)s1` [N-(5-tert-butyl-1,3,4-thiadiazol-2-yl)-2-methyl-2-{[6-(trifluoromethyl)pyridin-3-yl]sulfonyl}propanamide], the agonistic activity result is recorded as “agonistic activity”.

Turning to `CC(C)(C)c1csc(NC(=O)C2(S(=O)(=O)c3ccc(Cl)cc3)CC2)n1` [1-(4-Chloro-benzenesulfonyl)-cyclopropanecarboxylic acid (4-tert-butyl-thiazol-2-yl)-amide], the agonistic activity entry is on record as “agonistic activity”.

As for `CC(C)(C(=O)Nc1nc(-c2cccs2)cs1)S(=O)(=O)c1ccc(Cl)cc1` [2-(4-Chloro-benzenesulfonyl)-2-methyl-N-(4-thiophen-2-yl-thiazol-2-yl)-propionamide], the agonistic activity result is reported as “agonistic activity”.

Take `O=C(Nc1cc(C(F)(F)F)ccn1)C1(S(=O)(=O)c2ccc(C(F)(F)F)cc2)CC1` [1-(4-Trifluoromethyl-benzenesulfonyl)-cyclopropanecarboxylic acid (4-trifluoromethyl-pyridin-2-yl)-amide]: the agonistic activity result was “agonistic activity”.

Consider `Cc1nc(NC(=O)C(C)(C)S(=O)(=O)c2cccc(C(F)(F)F)c2)sc1C(C)(C)C` [N-(5-tert-Butyl-4-methyl-thiazol-2-yl)-2-methyl-2-(3-trifluoromethyl-benzenesulfonyl)-propionamide], for which the agonistic activity result is listed as “agonistic activity”.

Consider `CC(C)(C(=O)Nc1n[nH]c(-c2ccccc2)n1)S(=O)(=O)c1ccc(Cl)cc1` [2-(4-Chloro-benzenesulfonyl)-2-methyl-N-(5-phenyl-2H-[1,2,4]triazol-3-yl)-propionamide], for which the agonistic activity entry is listed as “agonistic activity”.

Consider `Cn1nc(C(C)(C)C)cc1NC(=O)C(C)(C)S(=O)(=O)c1ccc(Br)cc1` [2-(4-Bromo-benzenesulfonyl)-N-(5-tert-butyl-2-methyl-2H-pyrazol-3-yl)-2-methyl-propionamide], for which the agonistic activity entry was “agonistic activity”.

`Cc1ccc(S(=O)(=O)C(C)(C)C(=O)Nc2cc(C(C)(C)C)on2)cc1` [N-(5-tert-Butyl-isoxazol-3-yl)-2-methyl-2-(toluene-4-sulfonyl)-propionamide]: the agonistic activity entry is “agonistic activity”.

Turning to `Cc1nc(NC(=O)C(C)(C)S(=O)(=O)c2ccc3ccccc3c2)sc1C(C)(C)C` [N-(5-tert-Butyl-4-methyl-thiazol-2-yl)-2-methyl-2-(naphthalene-2-sulfonyl)-propionamide], the agonistic activity result is on record as “agonistic activity”.

Regarding `CC(C)(C(=O)Nc1cc(C(F)(F)F)ccn1)S(=O)(=O)c1ccc(Cl)cc1F` [2-(4-Chloro-2-fluoro-benzenesulfonyl)-2-methyl-N-(4-trifluoromethyl-pyridin-2-yl)-propionamide], the agonistic activity entry is on record as “agonistic activity”.

On to `CC(C)(C(=O)Nc1nc2ccccc2o1)S(=O)(=O)c1ccc(S(C)(=O)=O)cc1` [N-1,3-benzoxazol-2-yl-2-methyl-2-{[4-(methylsulfonyl)phenyl]sulfonyl}propanamide], for which the agonistic activity entry is listed as “agonistic activity”.

As to `Cc1sc(NC(=O)C(C)(C)S(=O)(=O)c2ccc(Cl)cc2F)nc1-c1ccccc1` [2-[(4-chloro-2-fluorophenyl)sulfonyl]-2-methyl-N-(5-methyl-4-phenyl-1,3-thiazol-2-yl)propanamide], the agonistic activity result is “agonistic activity”.

As to `CC(C)(C)c1cc(NC(=O)C(C)(C)S(=O)(=O)c2ccccc2F)[nH]n1` [N-(5-tert-Butyl-2H-pyrazol-3-yl)-2-(2-fluoro-benzenesulfonyl)-2-methyl-propionamide], the agonistic activity result is “agonistic activity”.

As for `CC(C)(C(=O)Nc1cccc(Cl)c1)S(=O)(=O)c1ccc(Cl)cc1` [2-(4-Chloro-benzenesulfonyl)-N-(3-chloro-phenyl)-2-methyl-propionamide], the agonistic activity entry was “agonistic activity”.

Consider `COc1ccc(S(=O)(=O)C(C)(C)C(=O)Nc2cc(C(C)(C)C)on2)cc1F` [N-(5-tert-Butyl-isoxazol-3-yl)-2-(3-fluoro-4-methoxy-benzenesulfonyl)-2-methyl-propionamide], for which the agonistic activity result is listed as “agonistic activity”.

`CC(C)(C)c1cc(NC(=O)C(C)(C)S(=O)(=O)c2ccc(S(C)(=O)=O)cc2)no1` [N-(5-tert-Butyl-isoxazol-3-yl)-2-(4-methanesulfonyl-benzenesulfonyl)-2-methyl-propionamide]: the agonistic activity entry was “agonistic activity”.

Take `Cc1ccc(S(=O)(=O)C(C)(C)C(=O)Nc2cc(C(C)(C)C)nn2C)c(F)c1` [N-(5-tert-Butyl-2-methyl-2H-pyrazol-3-yl)-2-(2-fluoro-4-methyl-benzenesulfonyl)-2-methyl-propionamide]: the agonistic activity result is listed as “agonistic activity”.

Take `Cc1nc(NC(=O)C(C)(C)S(=O)(=O)c2ccc(Cl)c(Cl)c2)sc1C(C)(C)C` [N-(5-tert-Butyl-4-methyl-thiazol-2-yl)-2-(3,4-dichloro-benzenesulfonyl)-2-methyl-propionamide]: the agonistic activity entry is on record as “agonistic activity”.

`Cc1ccccc1S(=O)(=O)C(C)(C)C(=O)Nc1nc(C)c(C(C)(C)C)s1` [N-(5-tert-Butyl-4-methyl-thiazol-2-yl)-2-methyl-2-(toluene-2-sulfonyl)-propionamide]: the agonistic activity result is recorded as “agonistic activity”.

The values are drawn from US8299111B2, “Compounds which modulate the CB2 receptor” (Boehringer Ingelheim International GmbH, priority 2006, dated 2012).
